Test: recombinant UMI read abundance after kanamycin selection (control-corrected) (log10(CPM+1)); higher = more efficient recombination; extreme values may be limits of the assay; sequences stand for … in AGTGCAGAGAAAATCGGCCAGTTTTCTCTGCCTGCAGTCCGCATGCCGTGGGACCCCTTGGGTTCTAACCTGTTGCCTAGATTTATGCAGCGGACTGCCTTTCTCCCAAAGTGATAAACCGG…AGGTTGGTTTCACT; site = the 11-nt donor
Description: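 Pooled E. coli donor-specificity screen for the IS621 bridge recombinase. Each library member carries a reprogrammed 11-nt donor and a full-length LE bridge RNA expressed in cis from the natural promoter, with a paired donor-binding loop (8-nt LDG + 4-nt RDG) and a target-binding loop fixed to T5. It is co-electroporated with a T5 target plasmid; recombinase is induced with 0.07 mM IPTG and recombinants are selected on kanamycin. UMIs are counted as CPM, averaged over two biological replicates and corrected by the unselected control. Molecule = full bridge RNA written as DNA, built from the T5 scaffold: LDG = donor specificity nt 1-8, RDG = reverse complement of nt 8-11.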
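Also: IS621 bridge recombinase in Escherichia coli cells against a fixed T5 target plasmid.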

Sequence	recombinant UMI read abundance (log10)
ACCCAAGCATGGACCGGTTTTCCCGGTAATCCGTATTTGAG (site AGCCAAGCTCT)	0.021
ACCCAAGCATGGACCGGTTTTCCCGGTAATCCGTATTTGAG (site ATCCAAGCTCT)	0.467
ACCCACCCATGGACCGGTTTTCCCGGTAATCCGTATTTGAG (site ACCCACCCTCT)	0.00795
ACCCTAGCATGGACCGGTTTTCCCGGTAATCCGTATTTGAT (site ACCCTAGCTAT)	0.558
ACCCTCTCATGGACCGGTTTTCCCGGTAATCCGTATTTGGG (site ACCCTCTCTCC)	0.0124
ACCGAGGCATGGACCGGTTTTCCCGGTAATCCGTATTTGGG (site ACCGAGGCTCC)	0.157
ACCGCGGCATGGACCGGTTTTCCCGGTAATCCGTATTTGAT (site ACCGCGGCTAT)	1.78
ACCGGATCATGGACCGGTTTTCCCGGTAATCCGTATTTGAG (site ACCGGATCTCT)	1.22
ACCGGATCATGGACCGGTTTTCCCGGTAATCCGTATTTGCG (site ACCGGATCTCG)	2.56
ACCGTAACATGGACCGGTTTTCCCGGTAATCCGTATTTGCA (site ACAGTATCTTG)	1.49
ACCGTAACATGGACCGGTTTTCCCGGTAATCCGTATTTGCA (site ACCGTAACTTG)	2.34
ACCGTATCATGGACCGGTTTTCCCGGTAATCCGTATTTGGA (site ACAGTATCTTG)	0.692
ACCGTATCATGGACCGGTTTTCCCGGTAATCCGTATTTGGA (site ACCGTATCTTC)	1.83
ACCTAGACATGGACCGGTTTTCCCGGTAATCCGTATTTGGA (site ACCTAGACTAC)	0
ACCTAGACATGGACCGGTTTTCCCGGTAATCCGTATTTGGA (site ACCTAGACTCC)	0.0104
ACCTAGACATGGACCGGTTTTCCCGGTAATCCGTATTTGGA (site ACCTAGACTGC)	0
ACCTAGACATGGACCGGTTTTCCCGGTAATCCGTATTTGGA (site ACCTAGACTTC)	0.725
ACCTAGTCATGGACCGGTTTTCCCGGTAATCCGTATTTGGG (site ACCTAGACTCC)	0
ACCTAGTCATGGACCGGTTTTCCCGGTAATCCGTATTTGGG (site ACCTAGCCTCC)	0.017
ACCTAGTCATGGACCGGTTTTCCCGGTAATCCGTATTTGGG (site ACCTAGGCTCC)	0.0399
ACCTAGTCATGGACCGGTTTTCCCGGTAATCCGTATTTGGG (site ACCTAGTCTCC)	0.0642
ACCTATACATGGACCGGTTTTCCCGGTAATCCGTATTTGAC (site AACTATACTGT)	0
ACCTATACATGGACCGGTTTTCCCGGTAATCCGTATTTGAC (site ACCTATACTGT)	1.58
ACCTATACATGGACCGGTTTTCCCGGTAATCCGTATTTGAC (site AGCTATACTGT)	0.0116
ACCTATACATGGACCGGTTTTCCCGGTAATCCGTATTTGAC (site ATCTATACTGT)	0.368
ACCTCGGCATGGACCGGTTTTCCCGGTAATCCGTATTTGTT (site ACCTCGGCTAA)	0.681

Sequence	recombinant UMI read abundance (log10)
ACCTGGGCATGGACCGGTTTTCCCGGTAATCCGTATTTGCA (site ACCTGGGCTTG)	0.909
ACCTTGACATGGACCGGTTTTCCCGGTAATCCGTATTTGGG (site ACCTAGACTCC)	0.0118
ACCTTGACATGGACCGGTTTTCCCGGTAATCCGTATTTGGG (site ACCTCGACTCC)	0.0142
ACCTTGACATGGACCGGTTTTCCCGGTAATCCGTATTTGGG (site ACCTGGACTCC)	0.0127
ACCTTGACATGGACCGGTTTTCCCGGTAATCCGTATTTGGG (site ACCTTGACTCC)	0.0408
ACGAAGACATGGACCGGTTTTCCCGGTAATCCGTATTTGCA (site AAGAAGACTTG)	2.3
ACGAAGACATGGACCGGTTTTCCCGGTAATCCGTATTTGCA (site ACGAAGACTTG)	2.78
ACGAAGACATGGACCGGTTTTCCCGGTAATCCGTATTTGCA (site AGGAAGACTTG)	1.81
ACGAAGACATGGACCGGTTTTCCCGGTAATCCGTATTTGCA (site ATGAAGACTTG)	2.04
ACGAAGACATGGACCGGTTTTCCCGGTAATCCGTATTTGCG (site ACGAAGACTCG)	2.77
ACGAAGACATGGACCGGTTTTCCCGGTAATCCGTATTTGCG (site AGGAAGACTTG)	0
ACGAAGTCATGGACCGGTTTTCCCGGTAATCCGTATTTGGG (site ACGAAGTCTCC)	0.574
ACGAATTCATGGACCGGTTTTCCCGGTAATCCGTATTTGCG (site ACGAATTCTCG)	2.06
ACGACTTCATGGACCGGTTTTCCCGGTAATCCGTATTTGTT (site ACGACTTCTAA)	1.23
ACGAGAACATGGACCGGTTTTCCCGGTAATCCGTATTTGTT (site ACGAGAACTAA)	2.8
ACGCAACCATGGACCGGTTTTCCCGGTAATCCGTATTTGAA (site ACGCAACCTTT)	0
ACGCGGACATGGACCGGTTTTCCCGGTAATCCGTATTTGTG (site ACGCGGACTCA)	1.74
ACGCGTCCATGGACCGGTTTTCCCGGTAATCCGTATTTGTG (site ACGCGTCCTCA)	0.257
ACGCGTGCATGGACCGGTTTTCCCGGTAATCCGTATTTGAC (site ACGCGTGCTGT)	2.96
ACGCTATCATGGACCGGTTTTCCCGGTAATCCGTATTTGCA (site ACAGTATCTTG)	1.92
ACGCTATCATGGACCGGTTTTCCCGGTAATCCGTATTTGCA (site ACGCTATCTTG)	2.75
ACGGACACATGGACCGGTTTTCCCGGTAATCCGTATTTGGT (site ACGGACACTAC)	1.82
ACGGCCTCATGGACCGGTTTTCCCGGTAATCCGTATTTGGG (site ACGGCCTCTCC)	0.0343
ACGGGCGCATGGACCGGTTTTCCCGGTAATCCGTATTTGAG (site ACGGGCGCTCT)	1.15
ACGGTATCATGGACCGGTTTTCCCGGTAATCCGTATTTGCA (site ACAGTATCTTG)	2.96
ACGGTATCATGGACCGGTTTTCCCGGTAATCCGTATTTGCA (site ACCGTATCTTG)	1.92

From the supplement of paper PMC11208160
